In article PMC11874007, “Switching Roles—Exploring Concentration-Dependent Agonistic versus Antagonistic Behavior of Integrin Ligands” (Journal of Medicinal Chemistry, 2025):

Assays:
[1] = system: FAK, p-FAK, p44/42erk-1/2, p-p44/42erk-1/2 in αvβ3+ M21 cells; assay: Western blot of FAK and p44/42erk-1/2 expression and activation, M21 cells; format: cell-based
Experimental: Since agonistic ligand performance requires integrin activation and signaling, by Western blot analysis, we studied whether the different ligands alter the expression levels and activation states of FAK and p44/42^(erk-1/2). For this, the respective target integrin-expressing tumor cell types were incubated with the corresponding subtype-selective ligand at a concentration of 1 μM for 24 h (Figure 8). […] Signal intensities of FAK and p44/42^(erk-1/2) expression and activation (p-FAK and p-p44/42^(erk-1/2)) on Western blots were evaluated by densitometry. Data are depicted as GAPDH-normalized fluorescence signal intensities as n-fold, by setting values obtained for the respective untreated cells to “1”. […] MAPK p44/42^(erk-1/2) expression was approximately 2.2-fold augmented, p44/42^(erk-1/2) by approximately 2.5-fold. It also raised activation of p-FAK and p-p44/42^(erk-1/2) by approximately 2.2-fold and 3.1-fold, respectively, in α5β1+ OV-MZ-6 cells. […] Additionally, it raised FAK (approximately 1.7-fold) and p-p44/42^(erk-1/2) (approximately 2.4-fold) in α5β1+ OV-MZ-6 cells.
Figure 8 Effects of ligands on cellular expression and activation of integrin-related signaling molecules FAK and p44/42^(erk-1/2). […] Signal intensities for FAK and p-FAK, respectively, were evaluated by use of the Bio-Rad Imager Gel Doc XR+ and a ChemiDoc XRS+ Systems and the software Image Lab. Shown are typical representative Western blot images and the corresponding histograms depicting GAPDH-normalized signal intensities as n-fold by setting the values obtained for untreated cells to “1” (drawn as black line). For each cell line, cutouts of identical gels are depicted.
In order to capture early and transient changes in signaling activation following ligand treatment, we next reduced the observation periods to 5, 30, or 60 min and assessed FAK expression and activation. […] Depicted are typical Western blot images and the corresponding densitometrical evaluations of GAPDH-normalized signal intensities as n-fold, by setting that of the respective untreated cell type to “1” (Figure 9). […]
The kinases (p-)p44/42^(erk-1/2) and (p-)FAK were detected as previously published.[15],[8] Briefly, cells were grown for 18 h on six-well plates in DMEM (0.45 Mio cells/well). After medium exchange, fresh medium with L1–L5 (concentration: 1.0 μM, 2 mL/well) was added, and cells were incubated for another 24 h at 37 °C. In a second series, cells were incubated with L1–L5 (1 μM or 1 nM) for 5, 30, or 60 min. Thereafter, the cellular proteins were extracted and processed by Western blotting. Proteins were visualized using the Pierce ECL chemiluminescent substrate (Thermo Fisher Scientific). Band signal intensities for (p-)p44/42^(erk-1/2) and (p-)FAK were evaluated using the Bio-Rad Imager Gel Doc XR + and ChemiDoc XRS + Systems and the software Image Lab. Differences in protein loading and blotting efficiency were normalized by reprobing the membranes with a monoclonal antibody directed to GAPDH. Signal intensities for protein bands of interest were normalized to those recorded for GAPDH. Typical Western blot images are depicted together with histograms summarizing the mean values of normalized fluorescence signal intensities as n-fold, by setting those obtained for untreated cells to “1”.

[2] = system: M21 (αvβ3+), HN (αvβ6+), RKO (α5β1+) cells; assay: Time-dependent cellular uptake of Cy5.5-labeled ligands in cells overexpressing the targeted integrin; format: cell-based; conditions: state within 30 min, Cy5.5-conjugated ligands, target integrin-expressing cells
Source text: For intracellular drug delivery, integrin ligands designed as drug-conjugated vehicles have to be easily and selectively internalized by tumor cells (over)expressing the respective targeted integrin subtype. […] It should be noted here that HN, OV-MZ-6, and RKO cells also express low αvβ3 expression levels.
Figure 7 Cellular uptake of Cy5.5-labeled integrin ligands. […] Nuclei were costained with Hoechst 33342 (blue signal) and cell membranes with CellMask Green (green signal). Merge of stains (yellow signal) indicated colocalization of ligands at the cell membrane. Scale bar: 50 μm.
Microchamber cell culture slides were coated with fibronectin (2 μg/mL), followed by cell seeding at a density of 50,000 cells/well. After 24 h of cultivation, cells were treated with integrin ligands L1-Cy5.5 to L5-Cy5.5 (1 μM in 0.01% (w/v) CaCl2 and 0.1% (w/v) BSA in PBS; 250 μL/well) for 3, 30, 60, or 300 min at 37 °C. The cells were washed in PBS/0.01% (w/v) CaCl2 (6 × 800 μL) and the fluorescence signal intensity recorded using the LSM 700 microscope (Zeiss, Jena, Germany). CellMask Green Plasma Membrane Stain was used to stain the cell membrane; nuclei were stained with Hoechst 33342.

Molecule	FAK expression versus untreated cells ([1]; 1 nM, 5, 30 or 60 min)	p-FAK expression ([1]; 1 nM, 5, 30 or 60 min)	FAK expression versus untreated cells ([1]; 1 μM, 5, 30 or 60 min)	FAK expression, n-fold of untreated cells ([1]; 1 μM, 24 h, GAPDH-normalized)	p-FAK expression, n-fold of untreated cells ([1]; 1 μM, 24 h, GAPDH-normalized)	Endocytosis of Cy5.5-conjugated ligand [2]	(p-)p-44/42erk-1/2 ([1]; 1 μM, 24 h)	p-FAK levels versus untreated cells ([1]; both concentrations (1 nM, 1 μM), up to 60 min)
C#CCCC(=O)NCCCOc1ccc(C(=O)N[C@H](CC(=O)O)Cc2ccc(OCCCNc3cc(OC)ccn3)cc2)cc1 [L1, (S)-4-(4-(3-((4-Methoxypyridin-2-yl)amino)propoxy)phenyl)-3-(4-(3-(pent-4-ynamido)propoxy)benzamido)butanoic Acid]	transient and slight increase	always prominently higher than that at 1 μM	remained below that in untreated cells	doubled	slightly reduced	started within 30 min	–	–
C#CCCC(=O)NCCCOc1cc(C)c(C(=O)N[C@@H](CNC(=O)CNC(=O)c2cccc(NC(=N)N)c2)C(=O)O)c(C)c1 [L5, (S)-2-(2,6-Dimethyl-4-(3-(pent-4-ynamido)propoxy)benzamido)-3-(2-(3-guanidinobenzamido)acetamido)propanoic Acid]	–	–	–	–	–	–	unexpectedly increased	equal or slightly higher than those in untreated cells
c(FRGDLAFp(NMe)K) [L3]	–	–	–	–	–	already completed	–	–
